Results taken from patent US20240058283A1, “THE MODE OF ACTION OF N-MeDCPA ON TRPC CHANNELS” (West Virginia University Board of Governors on Behalf of …, priority 2022, published 2024).

What was measured:
[1] = Serum levels in vivo
Source text: We have extensively investigated inhibitors of the store-operated Ca^2+ entry (SOCE) pathway as a target for control of bone erosion, particularly in the context of arthritis. […] On this basis, we have assessed the possibility that DCPA and/or DCPA analogs might be effective inhibitors of bone erosion in the context of arthritis^6. While this has proven to the case (data not shown), this investigation has opened new questions regarding the true identity of the DCPA target. […] As such, we have assessed the possibility that DCPA and its analogs may have a different target, especially within the context of arthritis.

[2] = system: osteoclasts; settings: reference 3, cited from earlier work

CCC(=O)Nc1ccc(Cl)c(Cl)c1 [DCPA, 3,4-dichloropropionaniline]
serum levels [1]: ≤ 100 nM | formation of bone degrading osteoclasts ([2]; in vitro): reduced the formation of bone degrading osteoclasts | concentration needed to block osteoclast differentiation ([2]; no block below this concentration): ≥ 100 µM
